Structures can show the parent of a compound that is named as a salt.
How the values were obtained:
[1] = system: glutathione S-transferase; test: Other derivatives tested as GSH/GST substrates, TLC (Example 54); format: biochemical; settings: 0.2-0.5 mM compound in 50 mM MOPS, pH 7.5, TLC
Description: The reaction is then stopped by adding 10% H2 O2.
The PHA compound (ethanol stock solution, 2 mM) and reduced glutathione (phosphate buffer stock solution, 5 mM) are incubated under the same conditions as described above without addition of glutathione S-transferase.
Commercial precast silica gel TLC plates are used to follow both the enzymatic reaction and the blank control reaction. […] UV absorbance by the PHA substituent always permits detection of both the compound and any glutathione adduct by fluorescence quenching when the TLC sheet is illuminated with 254-nm radiation. Fluorescent compounds can be directly detected using appropriate UV or visible illumination. […] Furthermore, the intensity of the signal on the TLC sheet often can be enhanced by methods well known in the art, such as by application of a phosphomolybdate spray, iodine vapors or a similar detection reagent. Radioactive products can be directly detected and quantitated by exposure to a suitable film using methods well known in the art.

[2] = system: Bovine pulmonary aorta endothelial cells (BPAEC); test: Glutathione adduct formation and fate of substrate in cultured animal cells, HPLC (Example 66); format: cell-based; settings: BPAEC, up to 4 hours
Description: The solutions are mixed overnight with three volumes of ethyl acetate followed by centrifugation at 15,000×g for 30 min to separate the organic and aqueous layers. HPLC analysis using a Rainin HPLC equipped with a C18, 5 μm, 100 Å, 4.6×250 mm MICROSORB-MV reverse phase column. […] Products are detected by reading the absorbance at 500 nm.
Bovine pulmonary aorta endothelial cells (BPAEC) are removed from flasks by trypsinization and washed into fresh complete growth medium to yield 10^6 cells/mL. […] Other aliquots of the cell suspension are loaded with the same substrates for 1 hour, rinsed into fresh complete medium, then incubated in the absence of substrate for an additional 3 hr at 37° C. to look for retention and efflux of fluorescent products. At the end of each incubation period the cells are removed by centrifugation and the supernate is retained. The cell pellets are resuspended in 1 mL of E-Pure water and subjected to three freeze-thaw cycles (-80° C. to 37° C.).

SMILES	glutathione adducts detected [1]	retention of GSH adduct / fluorescence labeling in cells [2]
O=C1OC2(c3ccc(O)cc3Oc3cc(O)ccc32)c2ccc(NC(=O)c3c(F)c(F)c(F)c(F)c3C(=O)O)cc21 [Compound 27, 5-(2'-carboxy-3',4',5',6'-tetrafluorobenzoylamino)fluorescein]	detectable glutathione adducts	–
O=C(NCCNC(=O)c1cc2ccc(O)cc2oc1=O)c1c(F)c(F)c(F)c(F)c1F [Compound 32, 7-hydroxy-3-((((2-(pentafluorobenzoyl)amino)ethyl)amino)carbonyl)coumarin]	detectable glutathione adducts	–
NCCNC(=O)c1c(F)c(F)c(F)c(F)c1F [Compound 31, ((2-(pentafluorobenzoyl)amino)ethyl)ammonium trifluoroacetate]	detectable glutathione adducts	–
O=C(c1c(F)c(F)c(F)c(F)c1F)c1cc2cc(F)c(O)c(F)c2oc1=O [Compound 42, 6,8-difluoro-7-hydroxy-3-pentafluorobenzoylcoumarin]	detectable glutathione adducts	–
Cc1cc(C)n2c1C=C1C=CC(CCC(=O)NCCNC(=O)c3c(F)c(F)c(F)c(F)c3F)=[N+]1[B-]2(F)F [Compound 30]	detectable glutathione adducts	–
N[C@@H](CCC(=O)N[C@@H](CSc1c(F)c(F)c(C(=O)Nc2ccc3c(c2)C(=O)OC32c3ccc(O)cc3Oc3cc(O)ccc32)c(F)c1F)C(=O)NCC(=O)O)C(=O)O [Compound 45, 5-(4'-(S-glutathionyl))-(2',3', 5',6'-tetrafluorobenzoylamino)fluorescein]	–	rapidly removed from the cytoplasm of these BPAEC cells but a fraction of the fluorescence labeling is retained, even after 4 hours
O=C(c1c(F)c(F)c(F)c(F)c1F)c1cc2ccc(O)cc2oc1=O [7-hydroxy-3-(pentafluorobenzoyl)coumarin]	detectable glutathione adducts	–
CN(C)c1ccc2c(c1)Oc1cc(N(C)C)ccc1C21OC(=O)c2cc(NC(=O)c3c(F)c(F)c(F)c(F)c3F)ccc21 [Compound 25, 5-(pentafluorobenzoylamino)tetramethylrhodamine]	detectable glutathione adducts	–
O=c1oc2cc(O)ccc2cc1-c1c(F)c(F)c(F)c(F)c1F [Compound 41, 7-hydroxy-3-pentafluorophenylcoumarin]	detectable glutathione adducts	–
CCN(CC)c1ccc2c(CNC(=O)c3c(F)c(F)c(F)c(F)c3F)cc(=O)oc2c1 [Compound 29, 7-diethylamino-4-(((Pentafluorobenzoyl)amino)methyl)coumarin]	detectable glutathione adducts	–
O=c1[nH][nH]c(=O)c2c(F)c(F)c(F)c(F)c12 [Compound 43, tetrafluorophthalhydrazide]	detectable glutathione adducts	–
O=C(c1c(F)c(F)c(F)c(F)c1F)N1CCN(C(=O)c2c3oc4cc(O)c(Cl)cc4nc-3ccc2=O)CC1 [Compound 17]	detectable glutathione adducts	–
CN(C)c1ccc2c(CC(=O)NCCNC(=O)c3c(F)c(F)c(F)c(F)c3F)cc(=O)oc2c1 [Compound 40, 7-dimethylamino-4-(((((2-(pentafluorobenzoyl)amino)ethyl)amino)carbonyl)methyl)coumarin]	detectable glutathione adducts	–
O=C(c1c(F)c(F)c(F)c(F)c1F)N1CCN(C(=O)c2c3oc4cc(O[C@@H]5O[C@H](CO)[C@H](O)[C@H](O)[C@H]5O)c(Cl)cc4nc-3ccc2=O)CC1 [Compound 22, 8-chloro-3,7-dihydroxy-4-(4-pentafluorobenzoyl-1-piperazinecarbonyl)phenoxazine β-D-galactopyranoside]	detectable glutathione adducts	–
O=C(Nc1ccc2c(c1)C(=O)OC21c2ccc(O)cc2Oc2cc(O)ccc21)c1cc(F)c(F)c(F)c1 [Compound 26, 5-(3',4',5'-trifluorobenzoylamino)fluorescein]	detectable glutathione adducts	–
O=c1cc(-c2c(F)c(F)c(F)c(F)c2F)c2ccc(O)cc2o1 [Compound 44, 7-hydroxy-4-pentafluorophenylcoumarin]	detectable glutathione adducts	–

From patent publication US5773236A, “Assay for glutathiane transferase using polyhaloaryl-substituted reporter molecules” (Molecule Probes, Inc., priority 1997, dated 1998)
